Assays:
Androgen receptor [1] = target: T1, Androgen receptor (Homo sapiens, UniProt P10275)
T1 sequence (P10275 whole entry): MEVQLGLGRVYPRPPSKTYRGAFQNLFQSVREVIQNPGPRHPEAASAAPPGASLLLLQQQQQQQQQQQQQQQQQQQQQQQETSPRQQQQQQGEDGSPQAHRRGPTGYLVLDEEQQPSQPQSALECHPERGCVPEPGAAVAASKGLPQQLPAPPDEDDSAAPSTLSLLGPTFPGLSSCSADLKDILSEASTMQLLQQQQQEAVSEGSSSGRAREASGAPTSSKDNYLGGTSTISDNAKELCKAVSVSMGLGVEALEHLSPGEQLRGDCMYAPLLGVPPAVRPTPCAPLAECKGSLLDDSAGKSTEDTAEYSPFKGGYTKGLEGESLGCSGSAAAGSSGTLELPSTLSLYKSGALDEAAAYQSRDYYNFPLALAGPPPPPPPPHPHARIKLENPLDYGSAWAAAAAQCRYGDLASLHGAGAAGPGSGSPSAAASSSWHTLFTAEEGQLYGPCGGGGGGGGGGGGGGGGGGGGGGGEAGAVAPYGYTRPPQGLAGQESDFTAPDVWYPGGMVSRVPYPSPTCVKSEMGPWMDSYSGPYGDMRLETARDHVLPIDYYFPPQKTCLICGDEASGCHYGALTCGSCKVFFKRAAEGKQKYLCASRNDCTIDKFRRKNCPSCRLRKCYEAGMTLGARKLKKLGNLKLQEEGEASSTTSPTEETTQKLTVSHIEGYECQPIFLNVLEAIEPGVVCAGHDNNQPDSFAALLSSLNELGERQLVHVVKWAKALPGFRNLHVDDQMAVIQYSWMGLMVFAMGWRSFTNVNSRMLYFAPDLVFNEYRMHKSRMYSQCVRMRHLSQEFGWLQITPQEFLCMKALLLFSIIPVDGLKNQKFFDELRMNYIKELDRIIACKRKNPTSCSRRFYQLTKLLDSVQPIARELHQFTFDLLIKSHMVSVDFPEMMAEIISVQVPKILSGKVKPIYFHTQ
Description: Antagonist activity at human androgen receptor expressed in HeLa cells assessed as inhibition of dihydrotestosterone induced transcriptional activity by reporter gene assay

[2] = target: T2, Androgen receptor (Homo sapiens) (UniProt P10275); settings: HeLa
T2 sequence (whole entry): T1 sequence (P10275 whole entry)
Description: Agonist activity at human androgen receptor expressed in HeLa cells assessed as five times increase in transcriptional activity by reporter gene assay

Androgen receptor [3] = target: T1, Androgen receptor; assay: biochemical
Description: Displacement of [3H]mibolerone from human androgen receptor expressed in CHOK1 cells

Mus musculus [4] = assay: Inhibition of testosterone propionate-stimulated seminal vesicle weight gain in castrated mouse at 3 mg/body, sc; format: functional
Mus musculus [5] = assay: Inhibition of testosterone propionate-stimulated seminal vesicle weight gain in castrated mouse at 10 mg/body, sc; format: functional
Mus musculus [6] = assay: Inhibition of testosterone propionate-stimulated seminal vesicle weight gain in castrated mouse at 1 mg/body, sc; format: functional

Compound	IC50 (Androgen receptor [1]) [nM]	FI5 [2] [nM]	IC50 (Androgen receptor [3]) [nM]	Inhibition (Mus musculus [4]) [%]	Inhibition (Mus musculus [5]) [%]	Inhibition (Mus musculus [6]) [%]
C[C@]12CCC(=O)C=C1C[C@@H](CCCCc1ccc(OCCCCC(=O)O)cc1)[C@@H]1[C@@H]2CC[C@@]2(C)[C@H]1CC[C@]2(C)O	250	2000	96			
C[C@]12CCC(=O)C=C1C[C@@H](CCCCc1cccc(OCCCC(=O)O)c1)[C@@H]1[C@@H]2CC[C@@]2(C)[C@H]1CC[C@]2(C)O	920	> 10000	670			
C[C@]12CCC(=O)C=C1C[C@@H](CCCc1cccc(OCCCC(=O)O)c1)[C@@H]1[C@@H]2CC[C@@]2(C)[C@H]1CC[C@]2(C)O	5800	1500				
C[C@]12CCC(=O)C=C1C[C@@H](CCCc1ccc(OCCCC(=O)O)cc1)[C@@H]1[C@@H]2CC[C@@]2(C)[C@H]1CC[C@]2(C)O	660	> 10000	430			
C[C@]12CCC(=O)C=C1C[C@@H](CCCCc1cccc(OCCCCC(=O)O)c1)[C@@H]1[C@@H]2CC[C@@]2(C)[C@H]1CC[C@]2(C)O		> 10000	350			
C[C@]12CCC(=O)C=C1C[C@@H](CCCc1ccc(OCCC(=O)O)cc1)[C@@H]1[C@@H]2CC[C@@]2(C)[C@H]1CC[C@]2(C)O	170	2500	300			
C[C@]12CCC(=O)C=C1C[C@@H](CCCc1ccc(OCCCCC(=O)O)cc1)[C@@H]1[C@@H]2CC[C@@]2(C)[C@H]1CC[C@]2(C)O	300	3200	660			
C[C@]12CCC(=O)C=C1C[C@@H](CCCCc1cccc(OCCCCCC(=O)O)c1)[C@@H]1[C@@H]2CC[C@@]2(C)[C@H]1CC[C@]2(C)O	530	> 10000	120			
CN(C)C(=O)CCCCCCC[C@@H]1C[C@H]2CC(=O)CC[C@]2(C)[C@H]2CC[C@]3(C)[C@@H](O)CC[C@H]3[C@H]12	190	> 10000	260			
C[C@]12CCC(=O)C[C@@H]1C[C@@H](CCCCCCCCCC(=O)O)[C@@H]1[C@@H]2CC[C@]2(C)[C@@H](O)CC[C@@H]12	920	120	350			
C[C@]12CCC(=O)C[C@@H]1C[C@@H](CCCCCCCCC(CCCC(F)(F)C(F)(F)F)C(=O)O)[C@@H]1[C@@H]2CC[C@]2(C)[C@@H](O)CC[C@@H]12 (stereo not given in full)	> 10000	13	410			
C[C@]12CCC(=O)C=C1C[C@@H](CCCCCCCCCC(=O)O)[C@@H]1[C@@H]2CC[C@@]2(C)[C@H]1CC[C@]2(C)O	2000	> 10000	600			
C[C@]12CCC(=O)C[C@@H]1C[C@@H](CCCCCCCC(=O)O)[C@@H]1[C@@H]2CC[C@]2(C)[C@@H](O)CC[C@@H]12	730	110	660			
C[C@]12CCC(=O)C=C1C[C@@H](CCCCc1ccc(OCCCC(=O)O)cc1)[C@@H]1[C@@H]2CC[C@@]2(C)[C@H]1CC[C@]2(C)O	850	170				
C[C@]12CCC(=O)C=C1C[C@@H](CCCCc1ccc(OCCCCCC(=O)O)cc1)[C@@H]1[C@@H]2CC[C@@]2(C)[C@H]1CC[C@]2(C)O	420	100				
CC(C)(O)C(=O)Nc1ccc([N+](=O)[O-])c(C(F)(F)F)c1 [HYDROXYFLUTAMIDE]		1000		0.8	6.4	6.7

— ChEMBL document CHEMBL1137463, “Discovery and structure-activity relationships of new steroidal compounds bearing a carboxy-terminal side chain as androgen receptor pure antagonists” (Bioorg Med Chem Lett, 2007)
